No end group written: not given here.
Experiment: Plasma pharmacokinetics of ALM201 in Phase I patients (validated LC-MS/MS, Phoenix WinNonlin)
Details: human, plasma, sc; for Tmax: median; for Tmax / AUC(0-t) / Cmax: plasma LC-MS/MS; for AUC(0-t): AUC0-t; for AUC(0-t) / Cmax: Gmean (CV); for level at 0.25 h / level at 0.75 h / level at 1.5 h / level at 2 h / level at 3 h / level at 4 h / level at 5 h / level at 6 h / level at 0.5 h / level at 1 h / level at 3.5 h: Plasma concentration, geometric mean (CV%), LC-MS/MS; for level at 0.25 h: day 1 cycle 1, 0.25 h after dosing; for level at 0.75 h: day 1 cycle 1, 0.75 h after dosing; for level at 3 h: day 1 cycle 1, 3 h after dosing; for level at 4 h: day 1 cycle 1, 4 h after dosing; for level at 6 h: day 1 cycle 1, 6 h after dosing
[1] = 100 mg, 100 mg SC, day 1 cycle 1, n = 4
[2] = 100 mg, 100 mg SC, day 3 cycle 1, n = 4
[3] = 100 mg, 100 mg SC, day 18 cycle 1, n = 2, CV not calculated
[4] = 100 mg, 100 mg SC, day 18 cycle 2, n = 1
[5] = 160 mg, 160 mg SC, day 1 cycle 1, n = 3
[6] = 160 mg, 160 mg SC, day 3 cycle 1, n = 3
[7] = 160 mg, 160 mg SC, day 18 cycle 1, n = 3
[8] = 160 mg, 160 mg SC, day 18 cycle 2, n = 1
[9] = 200 mg, 200 mg SC, day 1 cycle 1, n = 4
[10] = 200 mg, 200 mg SC, day 3 cycle 1, n = 4
[11] = 200 mg, 200 mg SC, day 18 cycle 1, n = 3
[12] = 200 mg, 200 mg SC, day 18 cycle 4, n = 2, CV not calculated

IRQQPRDPPTETLELEVSPDPAS [ALM201]
Tmax (80 mg, 80 mg SC, day 18 cycle 2, n = 1): 3.5 h | AUC(0-t) [1]: 6280 ng·h/mL | AUC(0-t) [2]: 8870 ng·h/mL | AUC(0-t) [3]: 8100 ng·h/mL | AUC(0-t) [4]: 5930 ng·h/mL | Cmax [1]: 1810 ng/mL | Cmax [2]: 2750 ng/mL | Cmax [3]: 2330 ng/mL | Cmax [4]: 1790 ng/mL | level at 0.25 h (100 mg, 100 mg SC, n = 4): 492 ng/mL | level at 0.75 h (100 mg, 100 mg SC, n = 4): 1220 ng/mL | level at 1.5 h (100 mg, 100 mg SC, day 1 cycle 1, 1.5 h after dosing, n = 4): 1810 ng/mL | level at 2 h (100 mg, 100 mg SC, day 1 cycle 1, 2 h after dosing, n = 4): 1590 ng/mL | level at 3 h (100 mg, 100 mg SC, n = 4): 1150 ng/mL | level at 4 h (100 mg, 100 mg SC, n = 4): 922 ng/mL | level at 5 h (100 mg, 100 mg SC, day 1 cycle 1, 5 h after dosing, n = 4, NQ value substituted with 100 ng/mL): 664 ng/mL | level at 6 h (100 mg, 100 mg SC, n = 4, NQ value substituted with 100 ng/mL): 560 ng/mL | level at 0.5 h (100 mg, 100 mg SC, day 3 cycle 1, 0.5 h after dosing, n = 4): 1730 ng/mL | level at 1 h (100 mg, 100 mg SC, day 3 cycle 1, 1 h after dosing, n = 4): 2100 ng/mL | level at 1.5 h (100 mg, 100 mg SC, day 3 cycle 1, 1.5 h after dosing, n = 4): 2530 ng/mL | level at 2 h (100 mg, 100 mg SC, day 3 cycle 1, 2 h after dosing, n = 4): 2400 ng/mL | level at 3.5 h (100 mg, 100 mg SC, day 3 cycle 1, 3.5 h after dosing, n = 4): 1690 ng/mL | level at 5 h (100 mg, 100 mg SC, day 3 cycle 1, 5 h after dosing, n = 4): 928 ng/mL | level at 0.5 h (100 mg, 100 mg SC, day 18 cycle 1, 0.5 h after dosing, n = 2): 1890 ng/mL | level at 1 h (100 mg, 100 mg SC, day 18 cycle 1, 1 h after dosing, n = 2): 1840 ng/mL | level at 1.5 h (100 mg, 100 mg SC, day 18 cycle 1, 1.5 h after dosing, n = 2): 2210 ng/mL | level at 2 h (100 mg, 100 mg SC, day 18 cycle 1, 2 h after dosing, n = 2): 2130 ng/mL | level at 3.5 h (100 mg, 100 mg SC, day 18 cycle 1, 3.5 h after dosing, n = 2): 1490 ng/mL | level at 5 h (100 mg, 100 mg SC, day 18 cycle 1, 5 h after dosing, n = 2): 961 ng/mL | level at 0.5 h (100 mg, 100 mg SC, day 18 cycle 2, 0.5 h after dosing, n = 1): 1060 ng/mL | level at 1 h (100 mg, 100 mg SC, day 18 cycle 2, 1 h after dosing, n = 1): 1790 ng/mL | level at 1.5 h (100 mg, 100 mg SC, day 18 cycle 2, 1.5 h after dosing, n = 1): 1710 ng/mL | level at 2 h (100 mg, 100 mg SC, day 18 cycle 2, 2 h after dosing, n = 1): 1570 ng/mL | level at 3.5 h (100 mg, 100 mg SC, day 18 cycle 2, 3.5 h after dosing, n = 1): 1180 ng/mL | Tmax [1]: 1.5 h | Tmax [2]: 1.61 h | Tmax (100 mg, 100 mg SC, day 18 cycle 1, n = 2): 1.9 h | Tmax [4]: 1.02 h | AUC(0-t) [5]: 6510 ng·h/mL | AUC(0-t) [6]: 5100 ng·h/mL | AUC(0-t) [7]: 4930 ng·h/mL | AUC(0-t) [8]: 5710 ng·h/mL | Cmax [5]: 1990 ng/mL | Cmax [6]: 1490 ng/mL | Cmax [7]: 1350 ng/mL | Cmax [8]: 1870 ng/mL | level at 0.25 h (160 mg, 160 mg SC, n = 3): 833 ng/mL | level at 0.75 h (160 mg, 160 mg SC, n = 3): 1570 ng/mL | level at 1.5 h (160 mg, 160 mg SC, day 1 cycle 1, 1.5 h after dosing, n = 3): 1670 ng/mL | level at 2 h (160 mg, 160 mg SC, day 1 cycle 1, 2 h after dosing, n = 3): 1480 ng/mL | level at 3 h (160 mg, 160 mg SC, n = 3): 1280 ng/mL | level at 4 h (160 mg, 160 mg SC, n = 3): 866 ng/mL | level at 5 h (160 mg, 160 mg SC, day 1 cycle 1, 5 h after dosing, n = 3): 510 ng/mL | level at 6 h (160 mg, 160 mg SC, n = 3): 283 ng/mL | level at 0.5 h (160 mg, 160 mg SC, day 3 cycle 1, 0.5 h after dosing, n = 3): 956 ng/mL | level at 1 h (160 mg, 160 mg SC, day 3 cycle 1, 1 h after dosing, n = 3): 1270 ng/mL | level at 1.5 h (160 mg, 160 mg SC, day 3 cycle 1, 1.5 h after dosing, n = 3): 1460 ng/mL | level at 2 h (160 mg, 160 mg SC, day 3 cycle 1, 2 h after dosing, n = 3): 1350 ng/mL | level at 3.5 h (160 mg, 160 mg SC, day 3 cycle 1, 3.5 h after dosing, n = 3): 926 ng/mL | level at 5 h (160 mg, 160 mg SC, day 3 cycle 1, 5 h after dosing, n = 3): 613 ng/mL | level at 0.5 h (160 mg, 160 mg SC, day 18 cycle 1, 0.5 h after dosing, n = 3): 940 ng/mL | level at 1 h (160 mg, 160 mg SC, day 18 cycle 1, 1 h after dosing, n = 3): 1150 ng/mL | level at 1.5 h (160 mg, 160 mg SC, day 18 cycle 1, 1.5 h after dosing, n = 3): 1280 ng/mL | level at 2 h (160 mg, 160 mg SC, day 18 cycle 1, 2 h after dosing, n = 3): 1200 ng/mL | level at 3.5 h (160 mg, 160 mg SC, day 18 cycle 1, 3.5 h after dosing, n = 3): 995 ng/mL | level at 5 h (160 mg, 160 mg SC, day 18 cycle 1, 5 h after dosing, n = 3): 577 ng/mL | level at 0.5 h (160 mg, 160 mg SC, day 18 cycle 2, 0.5 h after dosing, n = 1): 1380 ng/mL | level at 1 h (160 mg, 160 mg SC, day 18 cycle 2, 1 h after dosing, n = 1): 1380 ng/mL | level at 1.5 h (160 mg, 160 mg SC, day 18 cycle 2, 1.5 h after dosing, n = 1): 1650 ng/mL | level at 2 h (160 mg, 160 mg SC, day 18 cycle 2, 2 h after dosing, n = 1): 1870 ng/mL | level at 3.5 h (160 mg, 160 mg SC, day 18 cycle 2, 3.5 h after dosing, n = 1): 870 ng/mL | Tmax [5]: 1.52 h | Tmax [8]: 2 h | AUC(0-t) [9]: 5860 ng·h/mL | AUC(0-t) [10]: 6630 ng·h/mL | AUC(0-t) [11]: 5570 ng·h/mL | AUC(0-t) [12]: 6110 ng·h/mL | Cmax [9]: 1490 ng/mL | Cmax [10]: 1620 ng/mL | Cmax [11]: 1670 ng/mL | Cmax (200 mg, 200 mg SC, day 18 cycle 2, n = 2, CV not calculated): 1890 ng/mL | Cmax [12]: 1680 ng/mL | level at 0.25 h (200 mg, 200 mg SC, n = 4): 479 ng/mL | level at 0.75 h (200 mg, 200 mg SC, n = 4): 1040 ng/mL | level at 1.5 h (200 mg, 200 mg SC, day 1 cycle 1, 1.5 h after dosing, n = 4): 1240 ng/mL | level at 2 h (200 mg, 200 mg SC, day 1 cycle 1, 2 h after dosing, n = 4): 1370 ng/mL | level at 3 h (200 mg, 200 mg SC, n = 4): 1360 ng/mL | level at 4 h (200 mg, 200 mg SC, n = 4): 1050 ng/mL | level at 5 h (200 mg, 200 mg SC, day 1 cycle 1, 5 h after dosing, n = 4): 620 ng/mL

From publication PMC9276671, “A first-in-human Phase I dose-escalation trial of the novel therapeutic peptide, ALM201, demonstrates a favourable safety profile in unselected patients with ovarian cancer and other advanced solid tumours” (British Journal of Cancer, 2022)
